As usually defined, the Ki is the equilibrium dissociation constant of an inhibitor or competing ligand from its target.

Positions of bridges follow the written chain, without caps; N, C: chain ends. Non-standard residues stand in square brackets, D forms with d. Residues, ends and D or L forms follow the SMILES beside them. R8 = C=CCCCCCC[C@@](C)(N)C(=O)O; S5 = C=CCCC[C@](C)(N)C(=O)O; Ac6c = NC1(C(=O)O)CCCCC1; Ac5c = NC1(C(=O)O)CCCC1

The assay has as its target Bcl-xL (Homo sapiens, UniProt Q07817). Description: Ki determination for Bcl-xL (BCL-2 family binding spectrum). The note with it: read-out: Ki BCL-XL. An excerpt: To assess the binding and affinity of compounds that antagonize the interaction between a peptide and an acceptor protein, a fluorescence polarization assay (FPA) utilizing a fluoresceinated peptidomimetic macrocycle derived from a peptidomimetic precursor sequence is used, for example. The FPA technique measures the molecular orientation and mobility using polarized light and fluorescent tracer. […] A compound that antagonizes the interaction between the fluoresceinated peptidomimetic macrocycle and an acceptor protein will be detected in a competitive binding FPA experiment.
For example, putative antagonist compounds (1 nM to 1 mM) and a fluoresceinated peptidomimetic macrocycle (25 nM) are incubated with the acceptor protein (50 nM) in binding buffer (140 mM NaCl, 50 mM Tris-HCL, pH 7.4) for 30 minutes at room temperature. Antagonist binding activity is measured, for example, by fluorescence polarization on a luminescence spectrophotometer (e.g. Perkin-Elmer LS50B). Kd values may be determined by nonlinear regression analysis using, for example, Graphpad Prism software (GraphPad Software, Inc., San Diego, Calif.).

Sequence of Bcl-xL (Q07817 whole entry, species assumed): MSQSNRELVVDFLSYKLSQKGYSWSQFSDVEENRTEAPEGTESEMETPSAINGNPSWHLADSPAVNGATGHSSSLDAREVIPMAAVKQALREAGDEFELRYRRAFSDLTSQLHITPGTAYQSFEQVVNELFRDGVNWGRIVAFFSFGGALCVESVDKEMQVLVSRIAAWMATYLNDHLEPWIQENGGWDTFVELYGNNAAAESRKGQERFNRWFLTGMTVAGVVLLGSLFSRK

Take `CC[C@H](C)[C@H](NC(C)=O)C(=O)N[C@@H](Cc1c[nH]c2ccccc12)C(=O)NC1(C(=O)N[C@@H](C)C(=O)N[C@@H](CCC(N)=O)C(=O)N[C@@H](C)C(=O)N[C@@H](CC(C)C)C(=O)N[C@@H](CCCNC(=N)N)C(=O)N[C@]2(C)CCCCCCC=CCCC[C@@](C)(C(=O)N[C@@H](Cc3ccc(O)cc3)C(=O)N[C@@H](Cc3ccc(O)cc3)C(=O)N[C@@H](C)C(N)=O)NC(=O)[C@H](CC(N)=O)NC(=O)[C@H](Cc3ccccc3)NC(=O)[C@H](C)NC(=O)[C@H](CC(=O)O)NC(=O)CNC(=O)[C@H]([C@@H](C)CC)NC2=O)CCCCC1` [compound 1714] (Ac-IW[Ac6c]AQALR[R8]IGDAFN[S5]YYA-NH2; staple 9-16): the Ki is 7.7 nM.

Regarding `CC[C@H](C)[C@H](NC(C)=O)C(=O)N[C@@H](Cc1c[nH]c2ccccc12)C(=O)NC1(C(=O)N[C@@H](C)C(=O)N[C@@H](CCC(N)=O)C(=O)N[C@@H](C)C(=O)N[C@@H](CC(C)C)C(=O)N[C@@H](CCCNC(=N)N)C(=O)N[C@]2(C)CCCCCCC=CCCC[C@@](C)(C(=O)N[C@@H](Cc3ccc(O)cc3)C(=O)N[C@@H](Cc3ccc(O)cc3)C(=O)N[C@@H](C)C(N)=O)NC(=O)[C@H](CC(N)=O)NC(=O)[C@H](Cc3ccccc3)NC(=O)[C@H](C)NC(=O)[C@H](CC(=O)O)NC(=O)CNC(=O)[C@H]([C@@H](C)CC)NC2=O)CCCC1` [compound 1715] (Ac-IW[Ac5c]AQALR[R8]IGDAFN[S5]YYA-NH2; staple 9-16), the Ki came to 8.4 nM.

Turning to `CC[C@H](C)[C@H](NC(C)=O)C(=O)N[C@@H](CC(=O)O)C(=O)N[C@H](C(=O)N[C@@H](C)C(=O)N[C@@H](C)C(=O)N[C@@H](C)C(=O)N[C@@H](CC(C)C)C(=O)N[C@@H](CCCNC(=N)N)C(=O)N[C@]1(C)CCCCCCC=CCCC[C@@](C)(C(=O)N[C@@H](Cc2ccc(O)cc2)C(=O)N[C@@H](Cc2ccc(O)cc2)C(=O)N[C@@H](C)C(N)=O)NC(=O)[C@H](CC(N)=O)NC(=O)[C@H](Cc2ccccc2)NC(=O)[C@H](C)NC(=O)[C@H](CC(=O)O)NC(=O)CNC(=O)[C@H]([C@@H](C)CC)NC1=O)[C@@H](C)CC` [compound 1725] (Ac-IDIAAALR[R8]IGDAFN[S5]YYA-NH2; staple 9-16), the Ki stood at 36.3 nM.

Regarding `CC[C@H](C)[C@H](NC(C)=O)C(=O)N[C@@H](Cc1c[nH]c2ccccc12)C(=O)N[C@H](C(=O)N[C@@H](C)C(=O)N[C@@H](C)C(=O)N[C@@H](C)C(=O)N[C@@H](CC(C)C)C(=O)N[C@@H](CCCNC(=N)N)C(=O)N[C@]1(C)CCCCCCC=CCCC[C@@](C)(C(=O)N[C@@H](Cc2ccc(O)cc2)C(=O)N[C@@H](Cc2ccc(O)cc2)C(=O)N[C@@H](C)C(N)=O)NC(=O)[C@H](CC(=O)O)NC(=O)[C@H](Cc2ccccc2)NC(=O)[C@H](C)NC(=O)[C@H](CC(=O)O)NC(=O)CNC(=O)[C@H]([C@@H](C)CC)NC1=O)[C@@H](C)CC` [compound 1748] (Ac-IWIAAALR[R8]IGDAFD[S5]YYA-NH2; staple 9-16), the Ki came to 25.9 nM.

As for `CC[C@H](C)[C@H](NC(C)=O)C(=O)N[C@@H](Cc1c[nH]c2ccccc12)C(=O)N[C@H](C(=O)N[C@@H](C)C(=O)N[C@@H](CCC(N)=O)C(=O)N[C@@H](C)C(=O)N[C@@H](CC(C)C)C(=O)N[C@@H](CCCNC(=N)N)C(=O)N[C@]1(C)CCCCCCC=CCCC[C@@](C)(C(=O)N[C@@H](Cc2ccc(O)cc2)C(=O)N[C@@H](CC(C)C)C(=O)N[C@@H](C)C(N)=O)NC(=O)[C@H](CC(N)=O)NC(=O)[C@H](Cc2ccccc2)NC(=O)[C@H](C)NC(=O)[C@H](CC(=O)O)NC(=O)CNC(=O)[C@H]([C@@H](C)CC)NC1=O)[C@@H](C)CC` [compound 1755] (Ac-IWIAQALR[R8]IGDAFN[S5]YLA-NH2; staple 9-16), the Ki stood at 9 nM.

For the origin of these results see patent publication US20190185518A9, “WARHEAD-CONTAINING PEPTIDOMIMETIC MACROCYCLES AS MODULATORS OF BFL-1” (AILERON Therapeutics, Inc., priority 2017, published 2019).
